Experiments:
[1] = test system: human prostate cancer cells (PC3); test: Cytotoxicity by SRB assay, PC3 cells; format: cell-based; settings: 0.01 μM to 100 μM, 72 h
Procedure: (§1) The human prostate cancer cells (PC3) and human osteosarcoma cells (MG-63) were obtained from Nawah Scientific Inc. (Mokatam, Cairo, Egypt) and cultured in DMEM (Dulbecco's modified eagle's medium), Gibco, USA, supplemented with fetal bovine serum (FBS) at a concentration of 10% and 100 U/mL of penicillin and streptomycin (PS). The Cells were incubated at 37° C. in a humidified environment that contained 5% CO2. Cells were seeded in 96-well plates as aliquots of 100 μL cell suspension and incubated in a complete media for 24 h. afterward, cells were treated with N′-[(4-chlorobenzoyl)oxy]-1,3-benzothiazole-2-carboximidamide at diverse concentrations ranging from 0.01 μM to 100 μM for 72 h. Then, cells were fixed at 4° C. for one hour with 150 μL of 10% trichloroacetic acid (TCA). After washing the cells five times with distilled water, 70 μL of sulforhodamine (SRB) solution (0.4% w/v) was added and incubated for 10 min at room temperature in a dark place. […] Then, 150 μL of Tris pH 10.5 (10 mM) was added, and the absorbance was measured at 540 nm using a BMG LABTECH®--FLUOstar Omega microplate reader (Ortenberg, Germany). Half maximal inhibitory concentrations (IC50) values were calculated for each experiment using GraphPad Prism 6 software. […] The inhibition was calculated using the following equation: Inhibition %=100−Average Viability

[2] = test system: human osteosarcoma cells (MG-63); test: Cytotoxicity by SRB assay, MG-63 cells; format: cell-based; settings: 0.01 μM to 100 μM, 72 h
Procedure: as §1

- melting point: 160 to 162 °C
SMILES: N/C(Cc1nc2ccccc2s1)=N\OC(=O)c1ccc(Cl)cc1
- antiproliferative activity against PC3 cells [1]: excellent antiproliferative activities
- antiproliferative activity against MG-63 cells [2]: excellent antiproliferative activities

From US11912676B1, “N'-[(4-chlorobenzoyl)oxy]-1,3-benzothiazole-2-carboximidamide as an antitumor and antimicrobial compound” (KING FAISAL UNIVERSITY, priority 2023, dated 2024)
